These results are taken from patent US8791163B2 (McGill University, priority 2006, dated 2014).

For experiment [1], the target named is T1, cloned human MT2 receptors (Homo sapiens, UniProt P49286).
T1 construct: expressed in transfected cells
T1 sequence (P49286 1-362): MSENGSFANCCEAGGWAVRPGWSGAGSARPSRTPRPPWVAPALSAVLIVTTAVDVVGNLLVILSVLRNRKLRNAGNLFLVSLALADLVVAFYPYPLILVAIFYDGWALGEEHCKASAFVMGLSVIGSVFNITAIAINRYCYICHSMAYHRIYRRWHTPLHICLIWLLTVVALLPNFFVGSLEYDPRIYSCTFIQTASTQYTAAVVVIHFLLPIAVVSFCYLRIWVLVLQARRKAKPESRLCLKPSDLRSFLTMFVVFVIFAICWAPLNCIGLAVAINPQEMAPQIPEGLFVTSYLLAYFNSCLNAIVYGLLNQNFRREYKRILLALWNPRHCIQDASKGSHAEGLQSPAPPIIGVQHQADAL
Kind of experiment: 2-[125I]iodomelatonin competition binding, human MT2 in NIH3T3 cells. The note with it: human MT2 in NIH3T3 cells, calculated from IC50 by Cheng-Prusoff, mean of at least three determinations. As for the experimental part: (§1) Membranes were incubated for 90 min at 37° C. in binding buffer (Tris/HCl 50 mM, pH 7.4). The final membrane concentration was 5-10 μg of protein per tube. […] The pKi values are the mean of at least three independent determinations performed in duplicate. To define the functional activity of the compounds of Formula (I) at the MT1 and MT2 receptor subtypes, [^35S]GTPγS binding assays in NIH3T3 cells expressing human-cloned MT1 or MT2 receptors were performed. The amount of bound [^35S]GTPγS is proportional to the level of analogue-induced G-protein activation and is related to the intrinsic activity of the compound (i.e. a compound of Formula (I)) under study. […] Nonspecific binding was assessed using non-radiolabeled GTPγS (10 μM). […] Basal stimulation is the amount of [^35S]GTPγS specifically bound in the absence of the compounds of Formula (I) and was taken as 100%. […] All of the measurements were performed in triplicate.

The target in experiment [2] is T2, cloned human MT1 receptors (Homo sapiens, UniProt P48039).
T2 construct: expressed in transfected cells
T2 sequence (P48039 whole entry): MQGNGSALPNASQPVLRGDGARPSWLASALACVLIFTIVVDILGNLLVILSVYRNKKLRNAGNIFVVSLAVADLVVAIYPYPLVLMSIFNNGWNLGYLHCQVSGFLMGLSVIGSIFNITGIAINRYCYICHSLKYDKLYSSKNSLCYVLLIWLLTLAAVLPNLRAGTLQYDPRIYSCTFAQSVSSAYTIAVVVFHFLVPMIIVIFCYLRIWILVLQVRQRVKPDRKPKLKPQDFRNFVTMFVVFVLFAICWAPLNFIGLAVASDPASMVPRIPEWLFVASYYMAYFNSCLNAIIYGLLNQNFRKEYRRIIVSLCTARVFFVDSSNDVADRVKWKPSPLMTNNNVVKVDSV
The experiment in a line: [35S]GTPγS binding assay, NIH3T3 cells expressing human MT1. On MT1 Activity: key: A = agonist; PA = partial agonist; ANT = antagonist; IA = Inverse agonist. Format: biochemical. The note with it: for MT1 IAr ± SEM (relative intrinsic activity): maximal net effect relative to MLT. The protocol: as §1
A general note: Binding of GTPγS marks nucleotide exchange on a G protein.

The target in experiment [3] is T1, cloned human MT2 receptors. The experiment in a line: [35S]GTPγS binding assay, NIH3T3 cells expressing human MT2. On MT2 Activity: key: A = agonist; PA = partial agonist; ANT = antagonist; IA = Inverse agonist. It counts as biochemical. The note with it: for MT2 IAr ± SEM (relative intrinsic activity): maximal net effect relative to MLT. As for the experimental part: as §1
The target in experiment [4] is T2, cloned human MT1 receptors. The experiment in a line: 2-[125I]iodomelatonin competition binding, human MT1 in NIH3T3 cells. The note with it: calculated from IC50 by Cheng-Prusoff, mean of at least three determinations. The protocol: as §1

Regarding `COc1cccc(N(CCNC(C)=O)c2cccc(OC)c2)c1` [5c, N-[2-(bis-3-methoxyphenylamino)ethyl]acetamide], the “MT2 pKi” value in experiment [1] is on record as 10.56 ± 0.10. Further, the “MT1 IAr ± SEM (relative intrinsic activity)” value in experiment [2] is given as 0.59 ± 0.05. In experiment [3], the “MT2 Activity” value is listed as “ANT” and the “MT2 IAr ± SEM (relative intrinsic activity)” value is 0.15 ± 0.01. In addition, the “MT1 pKi” value in experiment [4] is recorded as 7.72 ± 0.13.
On to `COc1ccc(N(CCNC(C)=O)c2cccc(OC)c2)cc1` [5d, N-{2-[(4-Methoxyphenyl)-3-methoxyphenylamino]ethyl}acetamide], for which, in experiment [1], the “MT2 pKi” value is listed as 9.06 ± 0.10. In experiment [2], the “MT1 Activity” value was “ANT” and the “MT1 IAr ± SEM (relative intrinsic activity)” value is 0.06 ± 0.03. Also, in experiment [3], the “MT2 Activity” value is on record as “ANT” and the “MT2 IAr ± SEM (relative intrinsic activity)” value came to 0.03 ± 0.01. The “MT1 pKi” value in experiment [4] was 7.00 ± 0.01.
For the molecule `CC(=O)NCCN(c1ccccc1)c1cccc(Br)c1` [5f, N-{2-[(3-bromophenyl)-phenylamino]ethyl}acetamide], the “MT2 pKi” value in experiment [1] is on record as 9.70 ± 0.43. For the same molecule, the “MT1 IAr ± SEM (relative intrinsic activity)” value in experiment [2] is listed as 0.43 ± 0.04. In experiment [3], the “MT2 IAr ± SEM (relative intrinsic activity)” value is listed as 0.36 ± 0.01. Besides, the “MT1 pKi” value in experiment [4] is recorded as 7.77 ± 0.19.
Regarding `COc1cccc(N(CCNC(C)=O)c2ccc3ccccc3c2)c1` [5g, N-{2-[(3-Methoxyphenyl)-β-naphthylamino]ethyl}acetamide], the “MT2 pKi” value in experiment [1] was 9.95 ± 0.64. Further, in experiment [2], the “MT1 Activity” value is recorded as “ANT” and the “MT1 IAr ± SEM (relative intrinsic activity)” value is 0.17 ± 0.03. Besides, the “MT2 IAr ± SEM (relative intrinsic activity)” value in experiment [3] is on record as −0.20 ± 0.03. Besides, the “MT1 pKi” value in experiment [4] was 6.88 ± 0.07.
In the case of `CC(=O)NCCN(c1ccccc1)c1cccc(OCCCCc2ccccc2)c1` [5i], the “MT2 pKi” value in experiment [1] is 6.48 ± 0.29. In addition, in experiment [2], the “MT1 Activity” value was “ANT” and the “MT1 IAr ± SEM (relative intrinsic activity)” value is 0.12 ± 0.02. For the same molecule, in experiment [3], the “MT2 Activity” value is “ANT” and the “MT2 IAr ± SEM (relative intrinsic activity)” value amounted to 0.01 ± 0.01. Also, the “MT1 pKi” value in experiment [4] was 7.45 ± 0.01.
Take `COc1cccc(N(CCNC(C)=O)Cc2ccccc2)c1` [5k, N-{2-[(3-Methoxyphenyl)-benzylamino]ethyl}acetamide]: in experiment [1], the “MT2 pKi” value is 9.12 ± 0.05. Moreover, the “MT1 IAr ± SEM (relative intrinsic activity)” value in experiment [2] is listed as 0.92 ± 0.06. In experiment [3], the “MT2 IAr ± SEM (relative intrinsic activity)” value amounted to 0.31 ± 0.02. Also, the “MT1 pKi” value in experiment [4] is 7.30 ± 0.10.
Regarding `COc1cccc(NCCNC(C)=O)c1` [5l, N-[2{(3-Methoxyphenyl)-amino]ethyl}acetamide], the Ki in experiment [1] (read-out: MT2 pKi (converted)) is 7.59 nM. The “MT1 IAr ± SEM (relative intrinsic activity)” value in experiment [2] came to 0.84 ± 0.01. Also, the “MT2 IAr ± SEM (relative intrinsic activity)” value in experiment [3] was found to be 0.94 ± 0.03. The “MT1 pKi” value in experiment [4] is reported as 8.28 ± 0.01.
With `COc1cccc(N(C)CCCNC(C)=O)c1` [5m, N-{3-[(3-Methoxyphenyl)-methylamino]propyl}acetamide], in experiment [1], the “MT2 pKi” value was 8.70 ± 0.26. Moreover, the “MT1 IAr ± SEM (relative intrinsic activity)” value in experiment [2] worked out at 0.87 ± 0.05. Besides, the “MT2 IAr ± SEM (relative intrinsic activity)” value in experiment [3] amounted to 1.07 ± 0.06. Moreover, the “MT1 pKi” value in experiment [4] is given as 9.08 ± 0.04.
For `COc1cccc(N(CCNC(=O)C2CCC2)c2ccccc2)c1` [5o, N-{2-[(3-Methoxyphenyl)-phenylamino]ethyl}cyclobutancarboxamide], in experiment [1], the “MT2 pKi” value was 8.43 ± 0.40. Further, in experiment [2], the “MT1 IAr ± SEM (relative intrinsic activity)” value was 0.22 ± 0.01. Further, the “MT2 IAr ± SEM (relative intrinsic activity)” value in experiment [3] came out at 0.29 ± 0.01. In addition, the Ki in experiment [4] (read-out: MT1 pKi (converted)) is 331 nM.
In the case of `COc1cccc(N(CCN(C)C(C)=O)c2ccccc2)c1` [compound 6], in experiment [1], the “MT2 pKi” value is recorded as 7.28 ± 0.06. In addition, in experiment [2], the “MT1 Activity” value is “ANT” and the “MT1 IAr ± SEM (relative intrinsic activity)” value is −0.01 ± 0.03. Further, in experiment [3], the “MT2 Activity” value was “ANT” and the “MT2 IAr ± SEM (relative intrinsic activity)” value was −0.01 ± 0.03. Moreover, in experiment [4], the “MT1 pKi” value is recorded as 5.89 ± 0.07.
